Source: paper PMC9530963, “A cathelicidin antimicrobial peptide from Hydrophis cyanocinctus inhibits Zika virus infection by downregulating expression of a viral entry factor” (The Journal of Biological Chemistry, 2022)

Tested on: AXL
Assay: Effect of AC and PKA on Hc-CATH-induced AXL downregulation in A549 cells
Type: cell-based, Homo sapiens
Settings: 1 h pre-incubation of A549 cells, then Hc-CATH 5 μM, 24 h, Western blot
Protocol: Figure 6 Hc-CATH downregulates AXL via inhibiting COX-2/PGE2/AC/PKA pathway.A, effect of Hc-CATH on COX-2 protein level. A549 cells were incubated with Hc-CATH (1.25, 2.5, or 5 μM) or PBS (solvent of Hc-CATH) at 37 °C for 24 h, COX-2 protein level was examined by Western blot (upper panel) and analyzed by ImageJ (lower panel). B, effect of Hc-CATH on the enzymatic activity of COX-2. Hc-CATH (1.25, 2.5, 5, and 10 μM) or PBS was incubated with COX-2. After incubation at 37 °C for 10 min, the enzymatic activity of COX-2 was detected by enzyme activity inhibitor screening kit. Celecoxib (COX-2 inhibitor, 100 nM) was used as positive control. C, effect of Hc-CATH on PGE2 production. A549 cells were incubated with Hc-CATH (5 μM) at 37 °C. After incubation for 24 h, the level of PGE2 in the cell supernatant was detected by ELISA. D and E, effect of AC (D) and PKA (E) on Hc-CATH-induced AXL downregulation. A549 cells were incubated with forskolin (FSK, agonist of AC, 10 μM) or H89 (inhibitor of PKA, 5 μM) at 37 °C. After incubation for 1 h, the culture media were removed, cells were washed three times with PBS, and fresh culture media were added to cells in the presence of Hc-CATH (5 μM). After incubation for 24 h, AXL protein level was examined by Western blot (upper panel of D and E) and analyzed by ImageJ (lower panel of D and E). ns, not significant, ∗∗p < 0.01, and ∗∗∗p < 0.001. […]

Row | SMILES | effect on Hc-CATH-induced AXL downregulation (FSK 10 μM) | effect on Hc-CATH-mediated AXL downregulation (H89 5 μM)
1 | C=C[C@@]1(C)CC(=O)[C@]2(O)[C@@]3(C)[C@@H](O)CCC(C)(C)[C@@H]3[C@H](O)[C@H](OC(C)=O)[C@@]2(C)O1 [FSK, forskolin] | effectively counteracted the Hc-CATH-induced AXL downregulation | 
2 | O=S(=O)(NCCNC/C=C/c1ccc(Br)cc1)c1cccc2cnccc12 [H89] |  | significantly facilitated Hc-CATH-mediated AXL downregulation
